What was measured:
[1] = test system: normotensive dogs; test: Intraocular pressure and ocular surface hyperemia in normotensive dogs; type: in vivo, dog
Description: Isopropyl 2-(3-(6-hexyl-1-naphthamido)phenoxy)acetate was tested in normotensive dogs at 0.05%, dosing once daily for 5 days. The maximum intraocular pressure (IOP) decrease from baseline was 4.7 mmHg (28%) at 30 h; the maximum ocular surface hyperemia (OSH) score was 1.0 at 26 h. This compound was also tested in laser-induced hypertensive monkeys, using one single day dose. At 0.05%, the maximum IOP decrease from baseline was 17.1 mmHg (48%) at 24 h.
Isopropyl 2-(3-(6-(1-hydroxyhexyl)-1-naphthamido)phenoxy)acetate was tested in normotensive dogs at two concentrations, dosing once daily for 5 days. At 0.005%, the maximum intraocular pressure (IOP) decrease from baseline was 4.1 mmHg (22%) at 4 h; the maximum ocular surface hyperemia (OSH) score was 1.6 at 2 h. At 0.01%, the maximum intraocular pressure (IOP) decrease from baseline was 4.4 mmHg (26%) at 4 h; the maximum ocular surface hyperemia (OSH) score was 1.5 at 50 h. This compound was also tested in laser-induced hypertensive monkeys at two concentrations, using one single day dose. At 0.005%, the maximum IOP decrease from baseline was 8.1 mmHg (30%) at 24 h. At 0.01%, the maximum IOP decrease from baseline was 15.4 mmHg (42%) at 24 h.
Isopropyl 2-(3-(6-butyl-1-naphthamido)phenoxy)acetate was tested in normotensive dogs at 0.01%, dosing once daily for 4 days. The maximum intraocular pressure (IOP) decrease from baseline was 5.1 mmHg (26%) at 78 h; the maximum ocular surface hyperemia (OSH) score was 0.9 at 4 h. This compound was also tested in laser-induced hypertensive monkeys, using one single day dose. At 0.01%, the maximum IOP decrease from baseline was 14.1 mmHg (38%) at 24 h.
Isopropyl 2-(3-(3-hexylquinoline-8-carboxamido)phenoxy)acetate was tested in normotensive dogs at 0.01%, dosing once daily for 5 days. The maximum intraocular pressure (IOP) decrease from baseline was 2.8 mmHg (14%) at 100 h; the maximum ocular surface hyperemia (OSH) score was 0.8 at 28 h. This compound was also tested in laser-induced hypertensive monkeys, using one single day dose. At 0.01%, the maximum IOP decrease from baseline was 8.8 mmHg (19%) at 6 h.

[2] = target: T1, EP2 (Homo sapiens, UniProt P43116); test: EP2 cAMP functional assay; type: cell-based; conditions: unit inferred
Description: (§1) Data from running binding and activity studies on the compounds of the invention were carried out as described in the U.S. Pat. No. 7,427,685, the contents of which are incorporated herein by reference.

[3] = target: T2, EP4 (Homo sapiens, UniProt P35408); test: EP4 binding; conditions: unit inferred
Description: as §1

[4] = target: T1, EP2; test: EP2 binding; conditions: unit inferred
Description: as §1

[5] = target: T2, EP4; test: EP4 cAMP functional assay; type: cell-based; conditions: unit inferred
Description: as §1

[6] = target: T3, hEP3A (Homo sapiens, UniProt P43115); test: Other receptors functional activity, hEP3A; type: cell-based
T3 sequence (P43115 1-390): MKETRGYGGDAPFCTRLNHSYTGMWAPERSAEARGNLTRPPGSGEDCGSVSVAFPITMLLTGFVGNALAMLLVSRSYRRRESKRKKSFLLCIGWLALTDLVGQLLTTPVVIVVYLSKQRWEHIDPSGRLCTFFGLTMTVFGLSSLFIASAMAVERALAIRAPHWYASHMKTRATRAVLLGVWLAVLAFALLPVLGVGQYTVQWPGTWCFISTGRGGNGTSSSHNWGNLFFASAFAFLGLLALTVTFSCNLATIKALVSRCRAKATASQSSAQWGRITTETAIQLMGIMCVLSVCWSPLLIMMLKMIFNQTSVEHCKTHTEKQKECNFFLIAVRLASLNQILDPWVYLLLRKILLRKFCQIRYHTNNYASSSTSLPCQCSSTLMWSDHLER
Description: as §1

[7] = target: T4, hTP (Homo sapiens, UniProt P21731); test: Other receptors functional activity, hTP; type: cell-based
T4 sequence (P21731 1-343): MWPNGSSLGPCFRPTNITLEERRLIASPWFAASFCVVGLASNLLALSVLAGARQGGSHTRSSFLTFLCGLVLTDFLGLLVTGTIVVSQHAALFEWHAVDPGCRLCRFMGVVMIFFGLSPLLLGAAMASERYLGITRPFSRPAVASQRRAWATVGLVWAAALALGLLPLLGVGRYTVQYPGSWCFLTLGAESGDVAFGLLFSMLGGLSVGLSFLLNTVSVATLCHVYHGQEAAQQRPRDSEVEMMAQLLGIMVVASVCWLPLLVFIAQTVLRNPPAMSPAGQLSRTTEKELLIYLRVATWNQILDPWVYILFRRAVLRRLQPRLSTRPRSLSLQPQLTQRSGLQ
Description: as §1

[8] = target: T2, EP4; test: EP4 flipr functional assay; type: cell-based; conditions: unit inferred
Description: as §1

T2 sequence (P35408 whole entry): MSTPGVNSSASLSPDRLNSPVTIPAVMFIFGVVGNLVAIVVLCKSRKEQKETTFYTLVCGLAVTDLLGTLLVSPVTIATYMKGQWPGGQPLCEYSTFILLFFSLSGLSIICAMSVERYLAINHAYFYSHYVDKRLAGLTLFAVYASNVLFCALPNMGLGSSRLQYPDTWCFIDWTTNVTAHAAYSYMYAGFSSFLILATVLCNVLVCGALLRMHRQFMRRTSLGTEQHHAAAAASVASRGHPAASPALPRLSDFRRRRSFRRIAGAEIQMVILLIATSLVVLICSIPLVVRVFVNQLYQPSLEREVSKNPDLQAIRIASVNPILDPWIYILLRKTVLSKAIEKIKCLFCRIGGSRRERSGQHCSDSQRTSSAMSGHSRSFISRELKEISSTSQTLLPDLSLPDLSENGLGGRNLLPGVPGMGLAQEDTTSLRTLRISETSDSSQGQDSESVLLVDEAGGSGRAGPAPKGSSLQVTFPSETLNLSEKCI
T1 sequence (P43116 whole entry): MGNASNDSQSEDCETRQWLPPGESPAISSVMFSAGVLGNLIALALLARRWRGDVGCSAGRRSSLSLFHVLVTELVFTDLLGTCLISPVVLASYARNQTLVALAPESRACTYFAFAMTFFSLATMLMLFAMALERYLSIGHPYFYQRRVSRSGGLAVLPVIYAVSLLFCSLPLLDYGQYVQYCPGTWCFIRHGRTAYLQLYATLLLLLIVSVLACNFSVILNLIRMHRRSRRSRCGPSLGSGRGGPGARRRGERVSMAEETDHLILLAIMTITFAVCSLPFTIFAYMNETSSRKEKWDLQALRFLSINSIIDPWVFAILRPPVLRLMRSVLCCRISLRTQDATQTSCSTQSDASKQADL

CCCCCCc1ccc2c(C(=O)Nc3cccc(OCC(=O)OC(C)C)c3)cccc2c1 [Isopropyl 2-(3-(6-hexyl-1-naphthamido)phenoxy)acetate]
maximum ocular surface hyperemia (OSH) score ([1]; 0.05%, once daily for 5 days, at 26 h): 1.0

CCCCCC(O)c1ccc2c(C(=O)Nc3cccc(OCC(=O)O)c3)cccc2c1 (centres unmarked) [Example 10, 2-(3-(6-(1-hydroxyhexyl)-1-naphthamido)phenoxy)acetic acid]
EC50 [2]: 0.0002 µM | Ki [3]: > 10 µM | Ki [4]: 0.037 µM

CCCCc1ccc2c(C(=O)Nc3cccc(OCC(=O)O)c3)cccc2c1 [Example 3, 2-(3-(6-Butyl-1-naphthamido)phenoxy)acetic acid]
EC50 [2]: 0.001 µM | Ki [3]: > 10 µM | Ki [4]: 0.051 µM

CCc1ccc2c(C(=O)Nc3cccc(OCC(=O)O)c3)cccc2c1 [Example 6, 2-(3-(6-Ethyl-1-naphthamido)phenoxy)acetic acid]
EC50 [2]: 0.005 µM | Ki [3]: > 10 µM | Ki [4]: 0.112 µM

CCCCCOc1ccc2c(C(=O)Nc3cccc(OCC(=O)O)c3)cccc2c1 [Example 15, 2-(3-(6-(Pentyloxy)-1-naphthamido)phenoxy)acetic acid]
EC50 [2]: 0.025 µM | EC50 [5]: > 10 µM | Ki [3]: 8.48 µM | Ki [4]: 0.201 µM

CCCCCCc1cnc2c(C(=O)Nc3cccc(OCC(=O)O)c3)cccc2c1 [Example 12, 2-(3-(3-Hexylquinoline-8-carboxamido)phenoxy)acetic acid]
EC50 [6]: 13.3 µM | EC50 [7]: 6.56 µM | EC50 [2]: 0.0008 µM | EC50 [8]: 4.68 µM | Ki [3]: 2.15 µM | Ki [4]: 0.025 µM

O=C(O)COc1cccc(NC(=O)c2cccc3ccccc23)c1 [Example 8, 2-(3-(1-Naphthamido)phenoxy)acetic acid]
EC50 [2]: 0.083 µM | Ki [3]: > 10 µM | Ki [4]: 4.6 µM

CCCCCCc1cnc2c(C(=O)Nc3cccc(OCC(=O)OC(C)C)c3)cccc2c1 [Isopropyl 2-(3-(3-hexylquinoline-8-carboxamido)phenoxy)acetate]
maximum ocular surface hyperemia (OSH) score ([1]; 0.01%, once daily for 5 days, at 28 h): 0.8

Cc1ccc2c(C(=O)Nc3cccc(OCC(=O)O)c3)cccc2c1 [Example 7, 2-(3-(6-Methyl-1-naphthamido)phenoxy)acetic acid]
EC50 [2]: 0.065 µM | Ki [3]: > 10 µM | Ki [4]: 1.19 µM

CCCCc1ccc2c(C(=O)Nc3cccc(OCC(=O)OC(C)C)c3)cccc2c1 [Isopropyl 2-(3-(6-butyl-1-naphthamido)phenoxy)acetate]
maximum ocular surface hyperemia (OSH) score ([1]; 0.01%, once daily for 4 days, at 4 h): 0.9

CCCCCc1ccc2c(C(=O)Nc3cccc(OCC(=O)O)c3)cccc2c1 [Example 2, 2-(3-(6-Pentyl-1-naphthamido)phenoxy)acetic acid]
EC50 [2]: 0.002 µM | Ki [3]: > 10 µM | Ki [4]: 0.383 µM

CCCCCCc1ccc2c(C(=O)NCCc3ccc(C(=O)O)s3)cccc2c1 [Example 9, 5-(2-(6-Hexyl-1-naphthamido)ethyl)thiophene-2-carboxylic acid]
EC50 [2]: 0.025 µM | EC50 [8]: 9.4 µM | Ki [3]: 2.45 µM | Ki [4]: 3.21 µM

CCCc1ccc2c(C(=O)Nc3cccc(OCC(=O)O)c3)cccc2c1 [Example 5, 2-(3-(6-Propyl-1-naphthamido)phenoxy)acetic acid]
EC50 [2]: 0.005 µM | EC50 [8]: 7.13 µM | Ki [3]: 6.92 µM | Ki [4]: 0.03 µM

CCCC(O)c1ccc2c(C(=O)Nc3cccc(OCC(=O)O)c3)cccc2c1 (centres unmarked) [Example 11, 2-(3-(6-(1-Hydroxybutyl)-1-naphthamido)phenoxy)acetic acid]
EC50 [2]: 0.0007 µM | Ki [3]: 5.31 µM | Ki [4]: 0.063 µM

CCCCCC(O)c1ccc2c(C(=O)Nc3cccc(OCC(=O)OC(C)C)c3)cccc2c1 (centres unmarked) [Isopropyl 2-(3-(6-(1-hydroxyhexyl)-1-naphthamido)phenoxy)acetate]
maximum ocular surface hyperemia (OSH) score ([1]; 0.005%, once daily for 5 days, at 2 h): 1.6 | maximum ocular surface hyperemia (OSH) score ([1]; 0.01%, once daily for 5 days, at 50 h): 1.5

CCCCc1cnc2c(C(=O)Nc3cccc(OCC(=O)O)c3)cccc2c1 [Example 13, 2-(3-(3-Butylquinoline-8-carboxamido)phenoxy)acetic acid]
EC50 [2]: 0.002 µM | EC50 [5]: > 10 µM | Ki [3]: 2.06 µM | Ki [4]: 0.027 µM

CCCCc1cnc2c(C(=O)NCCc3ccc(C(=O)O)s3)cccc2c1 [Example 14, 5-(2-(3-Butylquinoline-8-carboxamido)ethyl)thiophene-2-carboxylic acid]
EC50 [2]: 0.012 µM | EC50 [5]: > 10 µM | Ki [3]: 2.03 µM | Ki [4]: 0.35 µM

CCCCCCCc1ccc2c(C(=O)Nc3cccc(OCC(=O)O)c3)cccc2c1 [Example 4, 2-(3-(6-Heptyl-1-naphthamido)phenoxy)acetic acid]
EC50 [2]: 0.015 µM | EC50 [8]: > 10 µM | Ki [3]: 7.68 µM | Ki [4]: 1.2 µM

CCCCCCc1ccc2c(C(=O)Nc3cccc(OCC(=O)O)c3)cccc2c1 [Example 1, 2-(3-(6-Hexyl-1-naphthamido)phenoxy)acetic acid]
EC50 [2]: 0.002 µM | Ki [3]: > 10 µM | Ki [4]: 0.099 µM

— patent US9714238B2, “Therapeutic agents for ocular hypertension” (Allergan, Inc., priority 2010, dated 2017)
